Source: patent US8188292B2, “Insecticidal N-substituted (heteroaryl)alkyl sulfilimines” (Dow AgroSciences, LLC, priority 2006, dated 2012)

Experiments:
[1] = system: cotton aphid (Aphis gossypii); test: Insecticidal test for cotton aphid in foliar spray assay; assay type: in vivo; parameters: key to CA 50: % control at 50 ppm against cotton aphid in foliar spray tests: A: 90-100; B: 80-89; C: 70-79; D: 60-69; E: 50-59; F: Less than 50; G: Inactive; H: Not tested; details: foliar spray on squash cotyledons, 3 days, Corrected % Control (Abbott); for pest or weed control at 200 ppm / pest or weed control at 50 ppm: Aphis gossypii, 72 h; for pest or weed control at 200 ppm: read-out: CA 200: % control at 200 ppm against cotton aphid in foliar spray tests; for pest or weed control at 50 ppm: read-out: CA 50: % control at 50 ppm against cotton aphid in foliar spray tests
Protocol: (§1) The compounds identified in the foregoing examples were tested against cotton aphid and green peach aphid using procedures described hereinafter. Insecticidal Test for Cotton Aphid (Aphis Gossypii) in Foliar Spray Assay Squash with fully expanded cotyledon leaves were trimmed to one cotyledon per plant and infested with cotton aphid (wingless adult and nymph) 1 day prior to chemical application. Each plant was examined before chemical application to ensure proper infestation (ca. 30-70 aphids per plant). Compounds (2 mg) were dissolved in 2 ml of acetone:methanol (1:1) solvent, forming stock solutions of 1000 ppm. The stock solutions were diluted 5× with 0.025% Tween 20 in H2O to obtain a solution at 200 ppm. Lower concentrations (50, 12.5 and 3.13 ppm) were prepared by making sequential 4× dilutions from the 200 ppm solution with a diluent consisting 80 parts of 0.025% Tween 20 in H2O and 20 parts of acetone:methanol (1:1). A hand-held Devilbiss sprayer was used to apply the spray solutions until runoff to both sides of the squash cotyledon leaves. Four plants (4 replications) were used for each concentration of each compound. Reference plants (solvent check) were sprayed with the diluent only. Treated plants were held in a holding room for 3 days at approximately 23° C. and 40% RH before the number of live aphids on each plant was recorded. Insecticidal activity was measured by Corrected % Control using Abbott's correction formula and presented in Table 1: Corrected % Control=100*(X−Y)/X • where X=No. of live aphids on solvent check plants • Y=No. of live aphids on treated plants Insecticidal Test for Green Peach Aphid (Myzus Persicae) in Foliar Spray Assay

[2] = system: green peach aphid (Myzus persicae); test: Insecticidal test for green peach aphid in foliar spray assay; assay type: in vivo; parameters: key to GPA 50: % control at 50 ppm against green peach aphid in foliar spray tests / GPA 200: % control at 200 ppm against green peach aphid in foliar spray tests: A: 90-100; B: 80-89; C: 70-79; D: 60-69; E: 50-59; F: Less than 50; G: Inactive; H: Not tested; details: foliar spray on cabbage seedlings, 3 days, Corrected % Control (Abbott); for pest or weed control at 200 ppm / pest or weed control at 50 ppm: Myzus persicae, 72 h; for pest or weed control at 200 ppm: read-out: GPA 200: % control at 200 ppm against green peach aphid in foliar spray tests; for pest or weed control at 50 ppm: read-out: GPA 50: % control at 50 ppm against green peach aphid in foliar spray tests
Protocol: as §1, with “hereinafter.” for “hereinafter. Insecticidal Test for Cotton Aphid (Aphis Gossypii) in Foliar Spray Assay”, “Assay Cabbage seedlings grown in 3-inch pots, with 2-3 small (3-5 cm) true leaves, were used as test substrate. The seedlings were infested with 20-50 green peach aphids (wingless adult and nymph) 2-3 days prior to chemical application. Four seedlings were used for each treatment. Compounds (2 mg) were dissolved in 2 ml of acetone:methanol (1:1) solvent, forming stock solutions of 1000 ppm. The stock solutions were diluted 5× with 0.025% Tween 20 in H2O to obtain a solution at 200 ppm. Lower concentrations (50, 12.5 and 3.13 ppm) were prepared by making sequential 4× dilutions from the 200 ppm solution with a diluent consisting 80 parts of 0.025% Tween 20 in H2O and 20 parts of acetone: methanol (1:1). A hand-held Devilbiss sprayer was used for spraying a solution to both sides of cabbage leaves until runoff. Reference plants (solvent check) were sprayed with the diluent only. Treated plants were held in a holding room for three days at approximately 23° C. and 40% RH prior to grading. Evaluation was conducted by counting the number of live aphids per plant under a microscope. Insecticidal activity was measured by using Abbott's correction formula: Corrected % Control=100*(X−Y)/X • where X=No. of live aphids on solvent check plants • Y=No. of live aphids on treated plants The Corrected % Control values from assays are given in Table 1.” for “Assay”

Row | SMILES | CA 50: % control at 50 ppm against cotton aphid in foliar spray tests ([1]; 50 ppm) | pest or weed control at 200 ppm [1] [%] | GPA 50: % control at 50 ppm against green peach aphid in foliar spray tests [2] | pest or weed control at 200 ppm [2] [%] | pest or weed control at 50 ppm ([1]; 50 ppm) [%] | GPA 200: % control at 200 ppm against green peach aphid in foliar spray tests [2] | pest or weed control at 50 ppm [2] [%]
1 | CS(=NC#N)[C@@H]1CCC[C@@H]1c1ccc(Cl)nc1 (relative stereo) [Compound 9, cis-[2-(6-chloropyridin-3-yl)cyclopentyl](methyl)-λ^4-sulfanylidenecyanamide] | G | 60 to 69 | G | 60 to 69 |  |  | 
2 | C/S(Cc1ccc(C(F)(F)F)nc1)=N\C#N (stereo not drawn) [Compound 1] |  | 90 to 100 | G |  | 60 to 69 | G | 
3 | CC(c1ccc(C(F)(F)Cl)nc1)/S(C)=N/C#N (stereo not drawn) [Compound 2, (1-{6-[chloro(difluoro)methyl]pyridin-3-yl}ethyl)(methyl)-λ^4-sulfanylidenecyanamide] |  | 90 to 100 |  | 90 to 100 | 90 to 100 |  | 90 to 100
4 | CC(c1ccc(C(Cl)(Cl)Cl)nc1)/S(C)=N/C#N (stereo not drawn) [Compound 3, {1-[6-(trichloromethyl)pyridin-3-yl]ethyl}(methyl)-λ^4-sulfanylidenecyanamide] |  | 90 to 100 |  | 90 to 100 | 90 to 100 |  | 90 to 100
5 | CC(c1cnc(Cl)nc1)/S(C)=N/C#N (stereo not drawn) [Compound 4, (1E)-[1-(2-chloropyrimidin-5-yl)ethyl](methyl)-λ^4-sulfanylidenecyanamide] |  | 90 to 100 | G | < 50 | 70 to 79 |  | 
6 | C/S(Cc1cnc(C(F)(F)F)s1)=N\C#N (stereo not drawn) [Compound 5, (1E)-methyl {[2-(trifluoromethyl)-1,3-thiazol-5-yl]methyl}-λ^4-sulfanylidenecyanamide] |  | 90 to 100 | G |  | 50 to 59 | G | 
7 | N#C/N=S1/CCC(c2ccc(C(F)(F)F)nc2)C1 (stereo not drawn) [Compound 6, 3-[6-(trifluoromethyl)pyridin-3-yl]tetrahydro-1H-1λ^4-thien-1-ylidenecyanamide] |  | 90 to 100 |  | 70 to 79 | 90 to 100 |  | 50 to 59
8 | C/S(Cc1cnc(Cl)c(F)c1)=N\C#N (stereo not drawn) [Compound 7, [(5-fluoro-6-chloropyridin-3-yl)methyl](methyl)-λ^4-sulfanylidenecyanamide] |  | 90 to 100 |  | 70 to 79 | 90 to 100 |  | 60 to 69
9 | C/S(Cc1ccc(C(C)(F)F)nc1)=N\C#N (stereo not drawn) [Compound 8] |  | 90 to 100 |  | 90 to 100 | 90 to 100 |  | 60 to 69
